Format in all cases: cell-based
For experiment [1], the target named is protein kinases (human kinome) (Homo sapiens, UniProt O60307). As to conditions: experiment wp081.
The target of experiment [2] is protein kinases (human kinome) (Homo sapiens, UniProt P11802).
The target of experiment [3] is protein kinases (human kinome) (Homo sapiens, UniProt P53667). As to conditions: LIMK1 (P53667-1), experiment wp081.
Experiment [4] has as its target protein kinases (human kinome) (Homo sapiens, UniProt Q16539).
The test system of experiment [5] is protein kinases (human kinome). As to conditions: for logFC MAPK8 (P45983-4): direction down; for logFC MAPK8: MAPK8 P45983-4.
The target in experiment [6] is T1, protein kinases (human kinome) (Homo sapiens, UniProt O14965).
T1 sequence (O14965 1-403): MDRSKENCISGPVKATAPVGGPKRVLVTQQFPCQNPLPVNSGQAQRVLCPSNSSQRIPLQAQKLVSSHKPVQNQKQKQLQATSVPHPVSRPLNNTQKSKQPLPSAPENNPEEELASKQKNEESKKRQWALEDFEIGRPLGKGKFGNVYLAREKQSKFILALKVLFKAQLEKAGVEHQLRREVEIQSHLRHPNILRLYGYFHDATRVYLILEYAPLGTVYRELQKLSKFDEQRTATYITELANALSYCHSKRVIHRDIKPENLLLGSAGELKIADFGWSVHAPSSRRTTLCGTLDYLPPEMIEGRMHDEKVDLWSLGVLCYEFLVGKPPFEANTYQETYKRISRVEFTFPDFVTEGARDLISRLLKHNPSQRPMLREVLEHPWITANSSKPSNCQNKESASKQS

In experiment [7] the target is protein kinases (human kinome) (Homo sapiens, UniProt P06493). As to conditions: CDK1 P06493.
Experiment [8] concerns the target protein kinases (human kinome) (Homo sapiens, UniProt P24941).
For experiment [9], the target named is protein kinases (human kinome) (Homo sapiens, UniProt P45984). As to conditions: MAPK9 P45984-1, experiment wp104.
In experiment [10] the target is protein kinases (human kinome) (Homo sapiens, UniProt P50613). As to conditions: for logFC: CDK7 (P50613) protein abundance, degrader vs DMSO, down; for logFC CDK7: CDK7 P50613, experiment wp104.
In experiment [11] the target is protein kinases (human kinome) (Homo sapiens, UniProt P53779). As to conditions: for logFC MAPK10 (P53779): direction of change down; for logFC: MAPK10 (P53779), experiment wp104.
Experiment [12] addresses protein kinases (human kinome) (Homo sapiens, UniProt Q00534). As to conditions: for logFC CDK6: CDK6 (Q00534), direction down; for logFC of CDK6 (Q00534): down.
The target of experiment [13] is protein kinases (human kinome) (Homo sapiens, UniProt Q00535). As to conditions: for logFC of CDK5: Accession Q00535; for logFC CDK5 (Q00535): direction of change down.
For experiment [14], the target named is protein kinases (human kinome) (Homo sapiens, UniProt Q00537). As to conditions: for logFC of CDK17: Accession Q00537; for logFC CDK17 (Q00537): direction of change down.
Experiment [15] deals with protein kinases (human kinome) (Homo sapiens, UniProt P49759).

The values below come from US20240269139A1, “COMPOUNDS FOR TARGETED PROTEIN DEGRADATION OF KINASES” (DANA-FARBER CANCER INSTITUTE, INC., priority 2020, published 2024).

Read-outs that look alike come from different tables or passages of the source.

Sequence of protein kinases (human kinome) (Homo sapiens, UniProt P11802) (P11802 whole entry): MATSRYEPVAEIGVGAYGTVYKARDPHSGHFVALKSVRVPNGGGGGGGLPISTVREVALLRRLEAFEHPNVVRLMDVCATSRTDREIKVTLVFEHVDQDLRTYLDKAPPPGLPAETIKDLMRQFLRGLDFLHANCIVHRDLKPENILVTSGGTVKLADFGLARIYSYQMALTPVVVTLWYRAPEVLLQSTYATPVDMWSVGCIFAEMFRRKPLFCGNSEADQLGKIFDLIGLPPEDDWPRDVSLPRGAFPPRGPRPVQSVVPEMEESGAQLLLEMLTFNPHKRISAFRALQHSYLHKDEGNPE
Sequence of protein kinases (human kinome) (Homo sapiens, UniProt P45984) (P45984 whole entry): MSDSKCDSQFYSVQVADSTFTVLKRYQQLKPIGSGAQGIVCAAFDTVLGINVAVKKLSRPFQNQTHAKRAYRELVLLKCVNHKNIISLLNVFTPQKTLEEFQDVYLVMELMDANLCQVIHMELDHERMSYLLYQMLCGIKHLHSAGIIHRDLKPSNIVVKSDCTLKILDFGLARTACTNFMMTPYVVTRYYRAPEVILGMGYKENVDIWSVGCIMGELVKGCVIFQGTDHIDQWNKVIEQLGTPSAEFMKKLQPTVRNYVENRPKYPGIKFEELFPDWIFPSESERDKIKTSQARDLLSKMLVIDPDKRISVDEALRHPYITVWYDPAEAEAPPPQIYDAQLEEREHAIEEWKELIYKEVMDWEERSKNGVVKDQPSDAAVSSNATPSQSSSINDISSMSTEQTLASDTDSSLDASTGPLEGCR
Sequence of protein kinases (human kinome) (Homo sapiens, UniProt Q00534) (Q00534 whole entry): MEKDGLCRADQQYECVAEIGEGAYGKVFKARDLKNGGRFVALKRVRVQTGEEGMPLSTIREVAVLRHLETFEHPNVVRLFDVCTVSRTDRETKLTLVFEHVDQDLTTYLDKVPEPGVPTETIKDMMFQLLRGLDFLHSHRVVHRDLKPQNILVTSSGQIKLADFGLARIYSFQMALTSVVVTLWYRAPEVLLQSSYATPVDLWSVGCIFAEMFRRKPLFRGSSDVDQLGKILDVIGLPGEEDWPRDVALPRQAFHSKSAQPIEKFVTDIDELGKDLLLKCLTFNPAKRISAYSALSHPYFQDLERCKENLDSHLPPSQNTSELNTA
Sequence of protein kinases (human kinome) (Homo sapiens, UniProt Q00537) (Q00537 whole entry): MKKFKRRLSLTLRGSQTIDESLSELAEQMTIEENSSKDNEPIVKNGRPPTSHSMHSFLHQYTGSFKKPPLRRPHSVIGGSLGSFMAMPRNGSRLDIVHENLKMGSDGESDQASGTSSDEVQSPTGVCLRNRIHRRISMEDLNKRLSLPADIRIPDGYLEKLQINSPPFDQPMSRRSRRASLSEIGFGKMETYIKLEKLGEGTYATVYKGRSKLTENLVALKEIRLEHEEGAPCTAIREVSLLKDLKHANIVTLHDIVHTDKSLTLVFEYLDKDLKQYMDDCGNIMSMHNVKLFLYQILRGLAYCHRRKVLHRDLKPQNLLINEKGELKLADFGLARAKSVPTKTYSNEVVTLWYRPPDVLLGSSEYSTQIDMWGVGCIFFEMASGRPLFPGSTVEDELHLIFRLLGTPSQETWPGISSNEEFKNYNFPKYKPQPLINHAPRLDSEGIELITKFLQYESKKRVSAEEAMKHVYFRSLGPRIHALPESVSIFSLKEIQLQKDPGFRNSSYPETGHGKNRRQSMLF
Sequence of protein kinases (human kinome) (Homo sapiens, UniProt P50613) (P50613 whole entry): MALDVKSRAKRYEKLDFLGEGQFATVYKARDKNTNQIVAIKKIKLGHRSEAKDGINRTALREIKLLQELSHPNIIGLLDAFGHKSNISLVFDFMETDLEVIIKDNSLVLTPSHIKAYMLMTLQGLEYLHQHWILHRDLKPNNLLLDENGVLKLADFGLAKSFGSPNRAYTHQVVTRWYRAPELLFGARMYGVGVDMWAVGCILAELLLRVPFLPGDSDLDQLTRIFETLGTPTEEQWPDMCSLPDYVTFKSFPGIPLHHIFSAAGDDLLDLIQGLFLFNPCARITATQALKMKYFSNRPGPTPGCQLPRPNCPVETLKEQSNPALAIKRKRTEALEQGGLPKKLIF
Sequence of protein kinases (human kinome) (Homo sapiens, UniProt P53779) (P53779 whole entry): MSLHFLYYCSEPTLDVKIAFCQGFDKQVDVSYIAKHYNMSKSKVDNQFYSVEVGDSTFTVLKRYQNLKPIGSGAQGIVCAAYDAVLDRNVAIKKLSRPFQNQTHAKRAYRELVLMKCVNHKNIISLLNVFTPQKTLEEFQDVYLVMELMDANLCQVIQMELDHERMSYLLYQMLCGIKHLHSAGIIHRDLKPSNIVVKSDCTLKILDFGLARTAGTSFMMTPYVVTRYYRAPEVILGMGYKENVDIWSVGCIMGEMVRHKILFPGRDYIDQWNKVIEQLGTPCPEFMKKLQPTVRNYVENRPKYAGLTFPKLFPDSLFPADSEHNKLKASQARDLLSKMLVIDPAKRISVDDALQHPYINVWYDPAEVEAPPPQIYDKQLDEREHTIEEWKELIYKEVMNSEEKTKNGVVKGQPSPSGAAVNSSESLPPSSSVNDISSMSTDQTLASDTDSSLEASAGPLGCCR
Sequence of protein kinases (human kinome) (Homo sapiens, UniProt Q00535) (Q00535 whole entry): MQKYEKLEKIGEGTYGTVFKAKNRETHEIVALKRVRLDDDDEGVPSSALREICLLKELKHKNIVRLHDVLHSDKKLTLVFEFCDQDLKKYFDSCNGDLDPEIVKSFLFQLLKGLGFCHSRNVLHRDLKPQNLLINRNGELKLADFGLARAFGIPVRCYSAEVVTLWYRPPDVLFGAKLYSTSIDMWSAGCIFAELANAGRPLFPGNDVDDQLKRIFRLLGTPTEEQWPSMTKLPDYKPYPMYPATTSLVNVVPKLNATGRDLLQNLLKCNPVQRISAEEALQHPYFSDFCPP
Sequence of protein kinases (human kinome) (Homo sapiens, UniProt P06493) (P06493 whole entry): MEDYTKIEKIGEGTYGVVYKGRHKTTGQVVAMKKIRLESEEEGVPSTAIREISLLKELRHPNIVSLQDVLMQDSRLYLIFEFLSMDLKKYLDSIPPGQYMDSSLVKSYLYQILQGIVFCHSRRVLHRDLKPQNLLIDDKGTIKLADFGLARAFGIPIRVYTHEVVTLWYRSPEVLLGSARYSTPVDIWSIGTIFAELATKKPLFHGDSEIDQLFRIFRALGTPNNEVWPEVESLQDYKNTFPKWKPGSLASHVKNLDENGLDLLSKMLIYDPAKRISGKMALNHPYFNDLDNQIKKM
Sequence of protein kinases (human kinome) (Homo sapiens, UniProt O60307) (O60307 whole entry): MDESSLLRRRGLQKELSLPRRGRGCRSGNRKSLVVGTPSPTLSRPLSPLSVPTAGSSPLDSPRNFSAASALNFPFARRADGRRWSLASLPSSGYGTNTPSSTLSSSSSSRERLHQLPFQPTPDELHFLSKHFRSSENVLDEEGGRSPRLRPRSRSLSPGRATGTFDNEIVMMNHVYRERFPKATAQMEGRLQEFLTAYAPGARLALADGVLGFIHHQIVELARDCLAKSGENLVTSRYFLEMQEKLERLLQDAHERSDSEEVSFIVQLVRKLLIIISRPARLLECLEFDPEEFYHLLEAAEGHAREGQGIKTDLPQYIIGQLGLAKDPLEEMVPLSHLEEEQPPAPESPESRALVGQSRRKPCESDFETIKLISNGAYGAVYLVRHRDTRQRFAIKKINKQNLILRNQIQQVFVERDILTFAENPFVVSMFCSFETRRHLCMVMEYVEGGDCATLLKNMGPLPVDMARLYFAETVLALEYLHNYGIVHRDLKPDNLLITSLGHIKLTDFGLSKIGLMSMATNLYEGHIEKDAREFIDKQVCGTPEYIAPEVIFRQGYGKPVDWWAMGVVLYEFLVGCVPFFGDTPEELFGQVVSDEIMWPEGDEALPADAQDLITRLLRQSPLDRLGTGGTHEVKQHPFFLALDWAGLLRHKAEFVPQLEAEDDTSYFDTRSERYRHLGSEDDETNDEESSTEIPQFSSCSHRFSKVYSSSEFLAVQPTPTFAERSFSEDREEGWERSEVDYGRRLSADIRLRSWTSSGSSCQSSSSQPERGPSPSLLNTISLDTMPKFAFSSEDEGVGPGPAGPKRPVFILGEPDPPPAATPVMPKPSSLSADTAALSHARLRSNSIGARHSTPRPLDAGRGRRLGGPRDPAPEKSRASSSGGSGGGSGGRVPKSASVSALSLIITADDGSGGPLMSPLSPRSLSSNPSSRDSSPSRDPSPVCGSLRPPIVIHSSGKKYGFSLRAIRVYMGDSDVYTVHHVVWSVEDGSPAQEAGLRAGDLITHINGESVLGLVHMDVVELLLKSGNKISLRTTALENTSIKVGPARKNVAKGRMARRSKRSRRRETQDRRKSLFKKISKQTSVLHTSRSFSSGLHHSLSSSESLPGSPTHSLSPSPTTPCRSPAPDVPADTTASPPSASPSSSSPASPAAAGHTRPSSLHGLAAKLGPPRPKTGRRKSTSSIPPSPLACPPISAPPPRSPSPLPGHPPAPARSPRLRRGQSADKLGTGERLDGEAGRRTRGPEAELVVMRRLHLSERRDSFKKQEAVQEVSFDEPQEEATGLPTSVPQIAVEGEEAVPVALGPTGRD
Sequence of protein kinases (human kinome) (Homo sapiens, UniProt P49759) (P49759 whole entry): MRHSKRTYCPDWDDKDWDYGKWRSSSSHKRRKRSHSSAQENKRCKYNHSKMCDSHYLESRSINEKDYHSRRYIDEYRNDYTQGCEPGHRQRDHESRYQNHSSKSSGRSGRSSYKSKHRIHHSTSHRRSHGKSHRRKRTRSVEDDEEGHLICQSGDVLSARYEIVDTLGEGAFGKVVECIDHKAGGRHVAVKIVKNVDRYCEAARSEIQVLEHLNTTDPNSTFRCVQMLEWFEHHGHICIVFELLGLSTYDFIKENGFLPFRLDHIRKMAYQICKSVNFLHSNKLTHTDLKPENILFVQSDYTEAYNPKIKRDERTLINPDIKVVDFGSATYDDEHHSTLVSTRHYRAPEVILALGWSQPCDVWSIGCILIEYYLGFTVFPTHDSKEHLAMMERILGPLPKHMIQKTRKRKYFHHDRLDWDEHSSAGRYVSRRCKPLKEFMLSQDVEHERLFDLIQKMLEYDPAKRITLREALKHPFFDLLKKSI

`CC(C)(C)c1cc(NC(=O)Nc2ccc(Oc3ccnc(C(=O)NCCOCCOCCNC(=O)CNc4cccc5c4C(=O)N(C4CCC(=O)NC4=O)C5=O)c3)cc2F)n(-c2ccc3ncccc3c2)n1` (centres unmarked) [TL13.178]: the “logFC MAST3 (O60307)” value in experiment [1] (direction of change down) is recorded as −0.4852. Also, the “logFC MAST3” value in [1] (protein MAST3 (O60307), down) is reported as −0.4852. Besides, in experiment [2] (experiment wp081), the “logFC CDK4 (P11802)” value is −0.5762. The “logFC LIMK1” value in experiment [3] (direction down) and in [3] (down) was −0.3359 each time. Besides, the logFC in [4] (MAPK14 (Q16539) protein abundance, degrader vs DMSO, down) was −0.5659. Further, the “logFC MAPK14” value in experiment [4] (MAPK14, accession Q16539, experiment wp081, direction of change down) is reported as −0.5659; in [5] (MAPK14, accession Q16539-2, experiment wp081, direction of change down), −0.3343; in experiment [5] (MAPK14 Q16539-2, experiment wp081), −0.3343. The “logFC MAP3K20 (Q9NYL2-2)” value in experiment [5] (Experiment wp081) and in experiment [5] (experiment wp081) was −1.407 throughout.

On to `NC(=O)c1c(F)cccc1Nc1nc(NC2CCN(S(=O)(=O)CCNC(=O)CCCCCCCCOc3cccc4c3C(=O)N(C3CCC(=O)NC3=O)C4=O)CC2)ncc1Br` (centres unmarked) [TMX.01.160.1], for which the “logFC AURKA (O14965)” value in experiment [6] (experiment wp104, _0.25) is reported as −1.326; in [6] (experiment wp104, _1), −1.466. In addition, the logFC in experiment [7] (experiment wp104, 0.25) was −0.7936; in experiment [7] (experiment wp104, 1), −0.9413; in experiment [9] (_0.25) it was −1.635; in [9] (_1), −1.496; in [10] (experiment suffix _0.25), −0.4941; in experiment [10] (experiment suffix _1) it was −0.5204. The logFC in experiment [11] (suffix _0.25) and in [11] (suffix _1) was −0.5743 in each case. For the same compound, the “logFC CDK1” value in experiment [7] (experiment wp104, 0.25) is recorded as −0.7936; in experiment [7] (experiment wp104, 1), −0.9413. The “logFC CDK4 (P11802)” value in experiment [2] (experiment wp104, _0.25) is given as −0.5542; in experiment [2] (experiment wp104, _1), −0.7676. For the same compound, the “logFC CDK2 (P24941-1)” value is reported as −1.024 in [8] (experiment wp104, _0.25); −1.024 in experiment [8] (experiment wp104, _0.25, direction of change down); −0.9457 in experiment [8] (experiment wp104, _1); −0.9457 in [8] (experiment wp104, _1, direction of change down). Further, the “logFC MAPK9” value in experiment [9] (_0.25) is recorded as −1.635; in [9] (_1), −1.496. Also, the “logFC CDK7” value in experiment [10] (_0.25) is recorded as −0.4941; in experiment [10] (_1), −0.5204. Moreover, the “logFC MAPK10 (P53779)” value in experiment [11] (Experiment wp104_TMX.01.160.1_0.25) and in experiment [11] (Experiment wp104_TMX.01.160.1_1) was −0.5743 in each case. The “logFC CDK6” value in experiment [12] (experiment wp104, _0.25) is reported as −0.866; in experiment [12] (experiment wp104, _1), −0.8425. The “logFC of CDK6 (Q00534)” value in experiment [12] (Experiment wp104, _0.25) is given as −0.866; in [12] (Experiment wp104, _1), −0.8425. Besides, the “logFC of CDK5” value in experiment [13] (experiment wp104, suffix _0.25) was −1.866; in [13] (experiment wp104, suffix _1), −1.827. Besides, the “logFC CDK5 (Q00535)” value in experiment [13] (experiment wp104, _0.25) is on record as −1.866; in experiment [13] (experiment wp104, _1), −1.827. Moreover, the “logFC of CDK17” value was −0.7788 in experiment [14] (experiment wp104, suffix _0.25) and −0.6817 in experiment [14] (experiment wp104, suffix _1). In addition, the “logFC CDK17 (Q00537)” value in experiment [14] (experiment wp104, _0.25) was −0.7788; in experiment [14] (experiment wp104, _1) it was −0.6817. The “logFC MAPK8 (P45983-4)” value is reported as −0.3338 in experiment [5] (Experiment wp104, _0.25) and −0.476 in experiment [5] (Experiment wp104, _1). Besides, the “logFC MAPK8” value in experiment [5] (experiment wp104, _0.25) is −0.3338; in experiment [5] (experiment wp104, _1), −0.476. The “logFC CDK16 (Q00536-2)” value in experiment [5] (experiment wp104, 0.25) is −0.8646; in experiment [5] (experiment wp104, 1), −0.6009; in [5] (experiment wp104, suffix _0.25), −0.8646; in experiment [5] (experiment wp104, suffix _1) it was −0.6009.

Regarding `Cc1ncsc1-c1ccc([C@H](C)NC(=O)[C@@H]2C[C@@H](O)CN2C(=O)[C@@H](NC(=O)CCOCCOCCOCCN2CCC(C(=O)Nc3ncc(SCc4ncc(C(C)(C)C)o4)s3)CC2)C(C)(C)C)cc1` [ZZ.01.31B], in experiment [15] (CLK1 P49759, experiment wp195), the “logFC CLK1” value is on record as −0.3482. The “logFC of CLK1 (P49759)” value in experiment [15] (Experiment wp195) is −0.3482. Also, the logFC in experiment [5] (CDK9 (P50750-2) protein abundance, degrader vs DMSO, down) is listed as −0.837. Besides, in experiment [5] (Experiment wp195), the “logFC CDK9 (P50750-2)” value was −0.837.
